# Test results as given in patent US5658500A, “Substituted naphthopyrans” (Transitions Optical, Inc., priority 1995, dated 1997).
# Legend:
# [1] = lambda max of the activated (colored) form in the visible spectrum; format: physicochemical; parameters: unit not given here; details: wavelength of maximum absorption of the activated form, in a diethylene glycol bis(allyl carbonate) composition
# Protocol: (§1) Testing was done with the photochromic naphthopyrans of the Examples incorporated or imbibed into test square polymerizates by one of two different methods. In Method I, the photochromic naphthopyrans of the Examples were incorporated into polymeric samples. The quantity of naphthopyran calculated to yield a 1.5 times 10^-3 molal solution was added to a flask containing 50 grams of a monomer blend of 4 parts ethoxylated bisphenol A dimethacrylate (BPA 2EO DMA), 1 part poly(ethyleneglycol) 600 dimethacrylate, and 0,033 weight percent 2,2'-azobis(2-methyl propionitrile) (AIBN). The naphthopyrans were dissolved into the monomer blend by stirring and gentle heating, if necessary. After a clear solution was obtained, it was poured into a flat sheet mold having the interior dimensions of 2.2 mm×6 inches (15.24 cm)×6 inches (15.24 cm). The mold was sealed and placed in a horizontal air flow, programmable oven set to increase the temperature from 40° C. to 95° C. over a 5 hour interval, hold the temperature at 95° C. for 3 hours and then lower it to 60° C. for at least 2 hours before the end of the curing cycle. After the molds were opened, the polymer sheets were cut using a diamond blade saw into 2 inch (5.1 centimeters) test squares.
# (§2) In Method II, the photochromic naphthopyran was imbibed into test square polymerizates prepared from a diethylene glycol bis(allyl carbonate) composition. The test squares measured 1/8 inch (0.3 centimeters)×2 inches (5.1 centimeters)×2 inches (5.1 centimeters). In the imbibition process, the photochromic naphthopyran was dissolved to form a 10 weight percent solution in a 1:9 mixture of ethyl cellulose:toluene. The solution was then spin coated onto the test squares and allowed to dry. Samples were then heated in a hot-air oven at 135°-155°C. for a period of time sufficient to thermally transfer the photochromic into the test squares. […] After cooling, the ethyl cellulose/toluene resin film was removed from the test squares by washing with acetone.
# The ΔOD/Min, which represents the sensitivity of the photochromic compound's response to UV light, was measured over the first five (5) seconds of UV exposure, then expressed on a per minute basis. The saturation optical density (OD) was taken under identical conditions as the ΔOD/Min, except UV exposure was continued for 20 minutes for the examples in Table 1. The lambda max reported in Table 1 is the wavelength in the visible spectrum at which the maximum absorption of the activated (colored) form of the photochromic compound in a diethylene glycol bis(allyl carbonate) composition occurs. The Bleach Rate (T 1/2) is the time interval in seconds for the absorbance of the activated form of the naphthopyran in the test squares to reach one half the highest absorbance at room temperature (75° F., 23.9° C.) after removal of the source of activating light.
# [2] = photochromic response of test squares on an optical bench (sensitivity, saturation optical density, bleach rate); format: physicochemical; details: for ΔOD @ SATURATION: UV exposure 20 minutes; for ΔOD @ SATURATION / ΔOD/MIN SENSITIVITY: 75° F. (23.9° C.); for ΔOD/MIN SENSITIVITY: first five seconds of UV exposure, expressed per minute; for Bleach Rate (T1/2): room temperature (75° F., 23.9° C.) after removal of activating light
# Protocol: as §1
# as §2, with “dry.” for “dry. Samples were then heated in a hot-air oven at 135°-155°C. for a period of time sufficient to thermally transfer the photochromic into the test squares.”
# The photochromic test squares were tested for photochromic response rates on an optical bench. […] The bench was fitted with a 150 watt Xenon arc lamp, a remote controlled shutter, a copper sulfate bath acting as a heat sink for the arc lamp, a Schott WG-320 nm cut-off filter which removes short wavelength radiation; neutral density filter(s) and a sample holder in which the square to be tested was inserted. A collimated beam of light from a tungsten lamp was passed through the square at a small angle normal to the square. After passing through the square, the light from the tungsten lamp was directed through a photopic filter attached to a detector. The photopic filter passes wavelengths such that the detector mimics the response of the human eye. The output signals from the detector(s) were processed by a radiometer.
# Change in optical density (ΔOD) was determined by inserting a test square in the bleached state into the sample holder, adjusting the transmittance scale to 100%, opening the shutter from the Xenon lamp to provide ultraviolet radiation to change the test square from the bleached state to an activated (i.e., darkened) state, measuring the transmittance in the activated state, and calculating the change in optical density according to the formula ΔOD=log(100/%Ta) where %Ta is the percent transmittance in the activated state and the logarithm is to the base 10.
# The ΔOD/Min, which represents the sensitivity of the photochromic compound's response to UV light, was measured over the first five (5) seconds of UV exposure, then expressed on a per minute basis. The saturation optical density (OD) was taken under identical conditions as the ΔOD/Min, except UV exposure was continued for 20 minutes for the examples in Table 1. The lambda max reported in Table 1 is the wavelength in the visible spectrum at which the maximum absorption of the activated (colored) form of the photochromic compound in a diethylene glycol bis(allyl carbonate) composition occurs.
# [3] = Method II (imbibed) test square
smiles,measurement,setting,value
"COC(=O)c1c2c(c3ccccc3c1OC(C)=O)OC(c1ccccc1)(c1ccc3c4ccccc4n(-c4ccccc4)c3c1)C=C2 (centres unmarked) [Example 5, 2-(9-phenylcarbazol-2-yl)-2-phenyl-5-methoxycarbonyl-6-acetoxy-2H-naphtho[1,2-b]pyran]",LAMBDA MAX (VISIBLE),[1],520
same,ΔOD @ SATURATION,[2]; Method I test square,0.88
same,ΔOD/MIN SENSITIVITY,[2]; Method I test square,0.31 ΔOD/MIN
same,Bleach Rate (T1/2),[2]; Method I test square,1.17 min
"COC(=O)c1c2c(c3ccccc3c1OC)OC(c1ccccc1)(c1ccc(N3CCOCC3)cc1)C=C2 (centres unmarked) [Example 2, 2-(4-morpholinophenyl)-2-phenyl-5-methoxycarbonyl-6-methoxy-2H-naphtho[1,2-b]pyran]",LAMBDA MAX (VISIBLE),[1],541
same,ΔOD @ SATURATION,[2]; Method I test square,0.95
same,ΔOD/MIN SENSITIVITY,[2]; Method I test square,0.29 ΔOD/MIN
same,Bleach Rate (T1/2),[2]; Method I test square,4.87 min
"COC(=O)c1c2c(c3ccccc3c1OC(C)=O)OC(c1ccccc1)(c1ccc(N(C)C)cc1)C=C2 (centres unmarked) [Example 6, 2-(4-dimethylaminophenyl)-2-phenyl-5-methoxycarbonyl-6-acetoxy-2H-naphtho[1,2-b]pyran]",LAMBDA MAX (VISIBLE),[1],591
same,ΔOD @ SATURATION,[2]; Method I test square,0.30
same,ΔOD/MIN SENSITIVITY,[2]; Method I test square,0.27 ΔOD/MIN
same,Bleach Rate (T1/2),[2]; Method I test square,1.17 min
"COC(=O)c1c2c(c3ccccc3c1OC(C)=O)OC(c1ccccc1)(c1ccc(N3CCOCC3)cc1)C=C2 (centres unmarked) [Example 3, 2-(4-morpholinophenyl)-2-phenyl-5-methoxycarbonyl-6-acetoxy-2H-naphtho[1,2-b]pyran]",LAMBDA MAX (VISIBLE),[1],545
same,ΔOD @ SATURATION,[2]; Method I test square,0.31
same,ΔOD/MIN SENSITIVITY,[2]; Method I test square,0.24 ΔOD/MIN
same,Bleach Rate (T1/2),[2]; Method I test square,1.47 min
"COC(=O)c1c2c(c3ccccc3c1O)OC(c1ccccc1)(c1ccc(N3CCOCC3)cc1)C=C2 (centres unmarked) [Example 1, 2-(4-morpholinophenyl)-2-phenyl-5-methoxycarbonyl-6-hydroxy-2H-naphtho[1,2-b]pyran]",LAMBDA MAX (VISIBLE),[1],511
same,ΔOD @ SATURATION,[2]; Method I test square,1.36
same,ΔOD/MIN SENSITIVITY,[2]; Method I test square,0.64 ΔOD/MIN
same,Bleach Rate (T1/2),[2]; Method I test square,3.22 min
"CCn1c2ccccc2c2ccc(C3(c4ccccc4)C=Cc4c(C(=O)OC)c(OC(C)=O)c5ccccc5c4O3)cc21 (centres unmarked) [Example 4, 2-(9-ethylcarbazol-2-yl)-2-phenyl-5-methoxycarbonyl-6-acetoxy-2H-naphtho[1,2-b]pyran]",LAMBDA MAX (VISIBLE),[1],528
same,ΔOD @ SATURATION,[2]; [3],0.46
same,ΔOD/MIN SENSITIVITY,[2]; [3],0.67 ΔOD/MIN
same,Bleach Rate (T1/2),[2]; [3],4.5 min
"COC(=O)c1c2c(c3ccccc3c1OC(C)=O)OC(c1ccc(N(C)C)cc1)(c1ccc(N(C)C)cc1)C=C2 [Example 8, 2,2-bis (4-dimethylaminophenyl)-5-methoxycarbonyl-6-acetoxy-2H-naphtho[1,2-b]pyran]",LAMBDA MAX (VISIBLE),[1],618
same,ΔOD @ SATURATION,[2]; Method I test square,0.07
same,ΔOD/MIN SENSITIVITY,[2]; Method I test square,0.16 ΔOD/MIN
same,Bleach Rate (T1/2),[2]; Method I test square,0.317 min
"COC(=O)c1c2c(c3ccccc3c1C)OC(c1ccccc1)(c1ccc(N(C)C)cc1)C=C2 (centres unmarked) [Example 7, 2-(4-dimethylaminophenyl)-2-phenyl-5-methoxycarbonyl-6-methyl-2H-naphtho[1,2-b]pyran]",LAMBDA MAX (VISIBLE),[1],584
same,ΔOD @ SATURATION,[2]; Method I test square,0.51
same,ΔOD/MIN SENSITIVITY,[2]; Method I test square,0.20 ΔOD/MIN
same,Bleach Rate (T1/2),[2]; Method I test square,3.33 min
